The values that follow are results of earlier work, collected in article PMC10698917, “Antioxidant and antidiabetic flavonoids from the leaves of Dypsis pembana (H.E.Moore) Beentje & J.Dransf., Arecaceae: in vitro and molecular docking studies” (BMC Complementary Medicine and Therapies, 2023).

The structures appear in SMILES notation.

This data set relates to HepG-2 cell line. Set-up: method as in PMID 37391756. The conditions noted are these: cited from earlier work.

Take `O=c1cc(-c2ccc(O)cc2)oc2c([C@@H]3O[C@H](CO)[C@@H](O)[C@H](O)[C@H]3O)c(O)c([C@@H]3O[C@H](CO)[C@@H](O)[C@H](O)[C@H]3O)c(O)c12` [Compound 7, vicenin-II]: the Cytotoxic activity entry is given as “promising cytotoxic activities”. Take `O=c1cc(-c2ccc(O)cc2)oc2cc(O)c([C@@H]3O[C@H](CO)[C@@H](O)[C@H](O)[C@H]3O)c(O)c12` [Compound 13, isovitexin]: the Cytotoxic activity entry was “promising cytotoxic activities”.
